US20130287705A1, “METHOD OF TREATING MUCOSAL INFLAMMATION” (MCMASTER UNIVERSITY, priority 2010, published 2013)

How the values were obtained:
dendritic cells = dendritic cells from TPH1-/- mice in DSS-colitis, stimulation with 5-HT; cited from earlier work
splenic dendritic cells = test: Ex vivo culture of CD11c positive splenic DCs from bone-marrow reconstituted mice post-DSS; assay type: cell-based; conditions: LPS and serotonin vs LPS only
Description: Mice were sacrificed by cervical dislocation and spleens were excised and placed in Spleen Dissociation Medium (STEMCELL Technologies) and incubated for 30 min at room temperature. They were then strained through a 70-μm nylon mesh filter (BD Falcon) and washed with PBS supplemented with 2% fetal bovine serum (FBS) and 1 mmol/L EDTA. Splenic DCs were isolated using a CD11c^+ isolation kit (EasySep®, STEMCELL Technologies) according to the manufacturer's guidelines.
DCs isolated using CD11c positive selection were incubated at 1×10^6 cells per mL for 24 hours at 37° C. with or without 100 ng/mL LPS (Sigma-Aldrich) in RPMI 1640 supplemented with 10% FBS, 100 U/mL penicillin, 100 μg/mL streptomycin, and 50 μM 2-mercaptoethanol (Invitrogen Life Technologies). Supernatents were collected after 24 hours and analyzed for cytokine levels using ELISA kits for murine IL-12p40, IL-1β, and IL-6 (Quantikine Murine; R&D Systems, Minneapolis, Minn., USA).
6-8 week old male recipient C57BL/6 mice (Taconic) were irradiated with two doses of 5.5 Gy 48 hours apart administered via a ^137Cs γ-irradiation source (Gamma Cell 40; Nordian, Kanata, ON, Canada). Bone marrow cells (no fewer than 5×10^4) were harvested from femurs and tibiae of donor mice (5-HT7^+/+) and 5-HT7^−/− and given via tail vein injection to recipient mice within two hours of the second irradiation exposure. […]

DSS-induced colitis = DSS-induced colitis in mice treated with 5-HT7 antagonist; assay type: in vivo, C57BL/6 mice
DSS and DNBS colitis = conditions: PCPA treated mice after induction of colitis; cited from earlier work

NCCc1c[nH]c2ccc(O)cc12 [serotonin, 5-hydroxytryptamine]
IL-12 production (dendritic cells): restored | IL-1β production (splenic dendritic cells; DCs from mice reconstituted with wild-type BMC, FIG. 9): significantly up-regulated | increase in IL-1β production (splenic dendritic cells; DCs from spleens of transgenic mice (5-HT7-/- BMC)): not seen

CC1CCN(CC[C@H]2CCCN2S(=O)(=O)c2cccc(O)c2)CC1.Cl [SB-269970, (2R)-1-[(3-Hydroxyphenyl)sulfonyl]-2-[2-(4-methyl-1-piperidinyl)ethyl]pyrrolidinehydrochloride]
colitis severity (macroscopic damage) (DSS-induced colitis; 40 mg/kg i.p., day 5 post-DSS induction, compared to controls): significantly lower | histological scores (DSS-induced colitis; 40 mg/kg i.p., day 5 post-DSS induction, compared to controls, FIG. 1C): significantly less severe | myeloperoxidase (MPO) activity in colonic tissue (DSS-induced colitis; 40 mg/kg i.p., post-DSS, FIG. 2A): significantly lower | production of IL-1β in colonic tissue (DSS-induced colitis; 40 mg/kg i.p., post-DSS, FIG. 2B): lower production | production of TNF-α in colonic tissue (DSS-induced colitis; 40 mg/kg i.p., post-DSS, FIG. 2C): lower production | production of IL-6 in colonic tissue (DSS-induced colitis; 40 mg/kg i.p., post-DSS, FIG. 2D): lower production | Clinical disease activity scores (fecal blood and consistency, and weight loss) (DSS-induced colitis; 40 mg/kg intraperitoneally, days 4 and 5 post-DSS administration, vs vehicle (saline), FIG. 1A): significantly lower

NC(Cc1ccc(Cl)cc1)C(=O)O (racemic) [PCPA, para-chloro-D, L-phenylalanine]
onset of colitis (DSS and DNBS colitis): Delayed onset | pro-inflammatory cytokine production (DSS and DNBS colitis): down-regulation | severity of colitis (DSS and DNBS colitis): decreased severity
